Test results taken from ChEMBL document CHEMBL1201862, “PubChem BioAssay data set” (2004).
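Where inhibition never reached the appropriate level, the endpoint shown equals the highest concentration tested. Otherwise, values were interpolated linearly from a five-concentration, 48-hour dose response in 96-well plates. Abbreviation: GI50, concentration required for 50% inhibition of growth.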 Activity calls are given as the source filed them. Rule as the data show it: active = GI50 up to about 1.1 µM and inactive = higher.

Legend:
Assay in all cases: DTP human tumour cell line panel, 48 h
[1] = system: A498
[2] = system: BT-549
[3] = system: CAKI-1
[4] = system: DU-145
[5] = system: HCT-116
[6] = system: HT-29
[7] = system: Hs-578T
[8] = system: K562
[9] = system: KM12
[10] = system: NCI-H226
[11] = system: NCI-H522
[12] = system: OVCAR-8
[13] = system: PC-3
[14] = system: SF-268
[15] = system: SK-MEL-2
[16] = system: SK-MEL-5
[17] = system: SN12C
[18] = system: SNB-75
[19] = system: UACC-257
[20] = system: UO-31

Row | SMILES | GI50 [1] | GI50 [2] | GI50 [3] | GI50 [4] | GI50 [5] | GI50 [6] | GI50 [7] | GI50 [8] | GI50 [9] | GI50 [10] | GI50 [11] | GI50 [12] | GI50 [13] | GI50 [14] | GI50 [15] | GI50 [16] | GI50 [17] | GI50 [18] | GI50 [19] | GI50 [20]
1 | OC1c2c(ccc3c2CCC3)CC12Cc1ccccc1C2 (stereo not given) | 16.2 µM (inactive) | 16.9 µM (inactive) | 16.7 µM (inactive) | 16.3 µM (inactive) | 16 µM (inactive) | 17 µM (inactive) | 16.6 µM (inactive) | 17.1 µM (inactive) | 14.9 µM (inactive) | 13.4 µM (inactive) | 16.3 µM (inactive) | 17.7 µM (inactive) | 15.3 µM (inactive) | 14.7 µM (inactive) | 15.3 µM (inactive) | 15.6 µM (inactive) | 15.3 µM (inactive) | 13.8 µM (inactive) | 14.1 µM (inactive) | 14.2 µM (inactive)
2 | COc1cc(CNc2c3ccccc3nc3ccccc23)cc(OC)c1OC | 1.82 µM (inactive) | 3.87 µM (inactive) | 2.74 µM (inactive) | 4.52 µM (inactive) | 1.44 µM (inactive) | 2.49 µM (inactive) | 3.64 µM (inactive) | 1.32 µM (inactive) | 6.21 µM (inactive) | 3.15 µM (inactive) | 2.55 µM (inactive) | 3.79 µM (inactive) | 3.23 µM (inactive) | 4.07 µM (inactive) | 2.23 µM (inactive) | 2.72 µM (inactive) | 2.88 µM (inactive) | 4.02 µM (inactive) | 3.11 µM (inactive) | 3.05 µM (inactive)
3 | O=C1CC2OCC=C3CN4CCC56c7ccccc7N1C5C2C3CC46O (stereo not given) | 48.1 µM (inactive) | > 100 µM (inactive) | 97.3 µM (inactive) | > 100 µM (inactive) | > 100 µM (inactive) | > 100 µM (inactive) | > 100 µM (inactive) | > 100 µM (inactive) | > 100 µM (inactive) | > 100 µM (inactive) | 47.5 µM (inactive) | > 100 µM (inactive) | > 100 µM (inactive) | > 100 µM (inactive) | > 100 µM (inactive) | > 100 µM (inactive) | > 100 µM (inactive) | > 100 µM (inactive) | > 100 µM (inactive) | > 100 µM (inactive)
4 | Cc1ccc(S(=O)(=O)N/C(=N\O)Nc2ccc(Cl)c(Cl)c2)cc1 | 10.3 µM (inactive) | 9.64 µM (inactive) | 5.41 µM (inactive) | 12 µM (inactive) | 5.31 µM (inactive) | 12.8 µM (inactive) | 3.73 µM (inactive) | 13 µM (inactive) | 11.2 µM (inactive) | 17.1 µM (inactive) | 4.47 µM (inactive) | 8.04 µM (inactive) | 5.48 µM (inactive) | 6.01 µM (inactive) | 10.2 µM (inactive) | 2.05 µM (inactive) | 2.12 µM (inactive) | 5.14 µM (inactive) | 4.68 µM (inactive) | 5.02 µM (inactive)
5 | COc1cc2c(c(OC)c1)C(=O)O[C@H](C)CCCC/C=C/C2 | 39.7 µM (inactive) | 13.4 µM (inactive) | 10.4 µM (inactive) | 11.7 µM (inactive) | 8.61 µM (inactive) | 35 µM (inactive) | 20.9 µM (inactive) | 6.24 µM (inactive) | 9.35 µM (inactive) | 45.6 µM (inactive) | 8.09 µM (inactive) | 33.3 µM (inactive) | 7.78 µM (inactive) | 8.17 µM (inactive) | 12.1 µM (inactive) | 5.71 µM (inactive) | 7.14 µM (inactive) | 14.1 µM (inactive) | 10.9 µM (inactive) | 13.5 µM (inactive)
6 | CCCCc1ccc(Nc2nc3c(ncn3C3CC(O)C(CN=[N+]=[N-])O3)c(=O)[nH]2)cc1 (stereo not given) | > 100 µM (inactive) | > 100 µM (inactive) | > 100 µM (inactive) | > 100 µM (inactive) | > 100 µM (inactive) | > 100 µM (inactive) | > 100 µM (inactive) | > 100 µM (inactive) | > 100 µM (inactive) | > 100 µM (inactive) | > 100 µM (inactive) | > 100 µM (inactive) | > 100 µM (inactive) | > 100 µM (inactive) | > 100 µM (inactive) | > 100 µM (inactive) | > 100 µM (inactive) | > 100 µM (inactive) | > 100 µM (inactive) | > 100 µM (inactive)
7 | COc1c2ccoc2nc2c(OC)c(OCC(O)C(C)(C)O)ccc12 (stereo not given) [EVOXINE] | > 100 µM (inactive) | > 100 µM (inactive) | > 100 µM (inactive) | > 100 µM (inactive) | > 100 µM (inactive) | > 100 µM (inactive) | > 100 µM (inactive) | > 100 µM (inactive) | > 100 µM (inactive) | > 100 µM (inactive) | > 100 µM (inactive) | > 100 µM (inactive) | > 100 µM (inactive) | > 100 µM (inactive) | > 100 µM (inactive) | > 100 µM (inactive) | > 100 µM (inactive) | 63.1 µM (inactive) | > 100 µM (inactive) | > 100 µM (inactive)
8 | C=C(C)C(CC=C(C)C)Cc1c(O)cc(OC)c2c1OC(c1ccc(O)cc1O)C(O)C2=O (stereo not given) | 16.5 µM (inactive) | 14.9 µM (inactive) | 13.6 µM (inactive) | 18.3 µM (inactive) | 17.3 µM (inactive) | 20.7 µM (inactive) | 17.2 µM (inactive) | > 100 µM (inactive) | 12 µM (inactive) | 18.3 µM (inactive) | 18.9 µM (inactive) | 17 µM (inactive) | 13.5 µM (inactive) | 18.6 µM (inactive) | 19.5 µM (inactive) | 18.5 µM (inactive) | 20.5 µM (inactive) | 17.2 µM (inactive) | 17.7 µM (inactive) | 15.9 µM (inactive)
9 | CCOC(=O)c1nnsc1NC(=O)NN | > 100 µM (inactive) | > 100 µM (inactive) | > 100 µM (inactive) | > 100 µM (inactive) | > 100 µM (inactive) | > 100 µM (inactive) | > 100 µM (inactive) | 41.1 µM (inactive) | > 100 µM (inactive) | > 100 µM (inactive) | > 100 µM (inactive) | > 100 µM (inactive) | > 100 µM (inactive) | > 100 µM (inactive) | > 100 µM (inactive) | > 100 µM (inactive) | > 100 µM (inactive) | > 100 µM (inactive) | > 100 µM (inactive) | > 100 µM (inactive)
10 | O=C(CC1C=Cc2ccccc2N1C(=O)c1ccccc1)c1ccccc1 (stereo not given) | 28.9 µM (inactive) | 23.8 µM (inactive) | 34.2 µM (inactive) | 50.8 µM (inactive) | 16 µM (inactive) | 17.1 µM (inactive) | 25.1 µM (inactive) | 19.9 µM (inactive) | 19.3 µM (inactive) | 34.4 µM (inactive) | 13.8 µM (inactive) | 29.2 µM (inactive) | 26.5 µM (inactive) | 27.1 µM (inactive) | 17.3 µM (inactive) | 13.3 µM (inactive) | 27 µM (inactive) | 45.2 µM (inactive) | 20.5 µM (inactive) | 20.4 µM (inactive)
11 | COc1ccc2c(c1)-c1c(c3cc(OC)ccc3n1CCN1CCOCC1)CC2 | 46.7 µM (inactive) | 28.4 µM (inactive) | 44.2 µM (inactive) | 37.8 µM (inactive) | 27.2 µM (inactive) | 13.5 µM (inactive) | 16.6 µM (inactive) | 13.2 µM (inactive) | 22.6 µM (inactive) | 14.7 µM (inactive) | 23.3 µM (inactive) | 28.6 µM (inactive) | 24.2 µM (inactive) | 55 µM (inactive) | 55.2 µM (inactive) | 25.4 µM (inactive) | 62.2 µM (inactive) | 19.8 µM (inactive) | 33.4 µM (inactive) | 24.5 µM (inactive)
12 | COc1cc2cc(C(=O)N3CC(CCl)c4c3cc(N)c3ccccc43)[nH]c2cc1OCCN(C)C (stereo not given) | 0.00546 µM (active) | 0.051 µM (active) | < 0.005 µM (active) | < 0.005 µM (active) | < 0.005 µM (active) | 0.5 µM (active) | 0.027 µM (active) | < 0.005 µM (active) | < 0.005 µM (active) | 0.00528 µM (active) | < 0.005 µM (active) | < 0.005 µM (active) | < 0.005 µM (active) | < 0.005 µM (active) | < 0.005 µM (active) | < 0.005 µM (active) | 0.00597 µM (active) | < 0.005 µM (active) | 0.00993 µM (active) | < 0.005 µM (active)
13 | CC1(C)CC(=O)c2c(nc(SSc3nc4c(c(-c5ccc(Br)cc5)c3C#N)C(=O)CC(C)(C)C4)c(C#N)c2-c2ccc(Br)cc2)C1 | > 10 µM (inactive) | > 10 µM (inactive) | > 10 µM (inactive) | > 10 µM (inactive) | > 10 µM (inactive) | > 10 µM (inactive) | > 10 µM (inactive) | > 10 µM (inactive) | > 10 µM (inactive) | > 10 µM (inactive) | > 10 µM (inactive) | > 10 µM (inactive) | > 10 µM (inactive) | > 10 µM (inactive) | > 10 µM (inactive) | > 10 µM (inactive) | > 10 µM (inactive) | > 10 µM (inactive) | > 10 µM (inactive) | > 10 µM (inactive)
14 | Nc1ncnc2c1ccn2CC=C(CO)CO | > 100 µM (inactive) | > 100 µM (inactive) | > 100 µM (inactive) | > 100 µM (inactive) | > 100 µM (inactive) | > 100 µM (inactive) | > 100 µM (inactive) | > 100 µM (inactive) | > 100 µM (inactive) | 8.07 µM (inactive) | > 100 µM (inactive) | > 100 µM (inactive) | > 100 µM (inactive) | > 100 µM (inactive) | > 100 µM (inactive) | > 100 µM (inactive) | > 100 µM (inactive) | > 100 µM (inactive) | > 100 µM (inactive) | > 100 µM (inactive)
